In patent US8916702B2 (priority 2012, dated 2014):

test system: HCV pseudoparticles (genotype 1a HCV E1 and E2 envelope, H77C isolate); assay: microbe, parasite or virus in culture; type: cell-based; conditions: Hepatitis C virus, Huh-7, 48 h, HCV pseudoparticle infection of Huh7 cells, luciferase 2 days after infection; average of duplicates

Compound	EC50
O=C(NC[C@H](NC(=O)c1ccc(Nc2nc(NC3(c4ccc(Cl)cc4)CC3)nc(OCC(F)(F)F)n2)cc1)C(=O)O)C(=O)Nc1cc[nH]n1 [Compound 1353]	1.66 nM
CC(C)(CNC(=O)C(=O)Nc1ccc(-c2ccc(C(F)(F)F)cc2)cc1)CNC(=O)c1ccc(Nc2nc(NC3(c4ccc(Cl)cc4)CC3)nc(OCC(F)(F)F)n2)cc1 [Compound 1594]	0.05 nM
COC(=O)[C@H](CNC(=O)C(=O)NCC1CCCOC1)NC(=O)c1ccc(Nc2nc(NC3(c4ccc(Cl)cc4)CC3)nc(OCC(F)(F)F)n2)cc1 (stereo partly shown) [Compound 1458]	3.2 nM
O=C(NC[C@H](NC(=O)c1ccc(Nc2nc(NC3(c4ccc(Cl)cc4)CC3)nc(OCC(F)(F)F)n2)cc1)C(=O)O)C(=O)NC1CCC(O)CC1 (stereo partly shown) [Compound 1078]	11.9 nM
CC(C)(CNC(=O)C(=O)Nc1ccccc1)CNC(=O)c1ccc(Nc2nc(NC3(c4ccc(Cl)cc4)CC3)nc(OCC(F)(F)F)n2)cc1 [Compound 1035, N1-(3-(4-(4-(1-(4-chlorophenyl)cyclopropylamino)-6-(2,2,2-trifluoroethoxy)-1,3,5-triazin-2-ylamino)benzamido)-2,2-dimethylpropyl)-N2-phenyloxalamide]	0.03 nM
CCOC(=O)[C@H](CCNC(=O)C(=O)N(C)C)NC(=O)c1ccc(Nc2nc(NC3(c4ccc(Cl)cc4)CC3)nc(OCC(F)(F)F)n2)cc1 [Compound 1026, (S)-ethyl 2-(4-(4-(1-(4-chlorophenyl)cyclopropylamino)-6-(2,2,2-trifluoroethoxy)-1,3,5-triazin-2-ylamino)benzamido)-4-(2-(dimethylamino)-2-oxoacetamido)butanoate]	2.68 nM

same assay, conditions: Hepatitis C virus, Huh-7, 48 h, HCV pseudoparticles (genotype 1a, H77C) in Huh7 cells; average of duplicate; luciferase 2 days after infection

Compound	EC50
CC(C)(CNC(=O)c1ccc(Nc2nc(NC3(c4ccc(Cl)cc4)CC3)nc(OCC(F)(F)F)n2)cc1)NC(=O)C(=O)NC1CCCCC1 [Compound 3436]	0.081 nM
COC(=O)/C(CCNC(=O)C(=O)Nc1ccc(-n2nnnc2C)cc1)=N\C(=O)c1ccc(Nc2nc(NC3(c4ccc(Cl)cc4)CC3)nc(OCC(F)(F)F)n2)cc1 [Compound 3135]	3.69 nM

same assay, conditions: Hepatitis C virus, Huh-7, 48 h, HCV pseudoparticles, Huh7 cells, luciferase 2 days after infection; average of duplicates

Compound	EC50
Cn1nnnc1-c1cccc(NC(=O)C(=O)NC[C@H](NC(=O)c2ccc(Nc3nc(NC4(c5ccc(Cl)cc5)CC4)nc(OCC(F)(F)F)n3)cc2)C(=O)Cl)c1 [Compound 3786]	0.55 nM

same assay, conditions: Hepatitis C virus, Huh-7, 48 h, read-out: Activity (EC50 class), HCV pseudoparticle infection of Huh7 cells, luciferase 2 days after infection; EC50 expressed as class A/B

Compound	EC50
COC(=O)[C@H](CNC(=O)C(=O)NCc1cccc(F)c1)NC(=O)c1ccc(Nc2nc(NC3(c4ccc(Cl)cc4)CC3)nc(OCC(F)(F)F)n2)cc1 [Compound 1131]	0.01 to 10 nM
C[C@H]1[C@@H](NC(=O)C(=O)NCC[C@H](NC(=O)c2ccc(Nc3nc(NC4(c5ccc(Cl)cc5)CC4)nc(OCC(F)(F)F)n3)cc2)C(=O)O)C[C@H]2C[C@@H]1C2(C)C [Compound 1123]	0.01 to 10 nM
COC(=O)[C@H](CCNC(=O)C(=O)NC1CC(C)(C)CC(C)(C)C1)NC(=O)c1ccc(Nc2nc(NC3(c4ccc(Cl)cc4)CC3)nc(OCC(F)(F)F)n2)cc1 [Compound 1071]	0.01 to 10 nM
COC(=O)[C@@H](CCNC(=O)C(=O)NCC1(CN2CCCC2)CC1)NC(=O)c1ccc(Nc2nc(NC3(c4ccc(Cl)cc4)CC3)nc(OCC(F)(F)F)n2)cc1 [Compound 1384]	0.01 to 10 nM
COC(=O)[C@H](CCNC(=O)C(=O)NC1CCCC(NC(=O)OC(C)(C)C)C1)NC(=O)c1ccc(Nc2nc(NC3(c4ccc(Cl)cc4)CC3)nc(OCC(F)(F)F)n2)cc1 (stereo partly shown) [Compound 1097]	0.01 to 10 nM
O=C(NC[C@H](NC(=O)c1ccc(Nc2nc(NC3(c4ccc(Cl)cc4)CC3)nc(OCC(F)(F)F)n2)cc1)C(=O)O)C(=O)Nc1cc[nH]n1 [Compound 1353]	0.01 to 10 nM
COC(=O)[C@H](CNC(=O)C(=O)N[C@@H]1C[C@@H]2CC[C@H]1C2)NC(=O)c1ccc(Nc2nc(NC3(c4ccc(Cl)cc4)CC3)nc(OCC(F)(F)F)n2)cc1 [Compound 1050]	0.01 to 10 nM
CC(C)(CNC(=O)C(=O)Nc1ccc(-c2ccc(C(F)(F)F)cc2)cc1)CNC(=O)c1ccc(Nc2nc(NC3(c4ccc(Cl)cc4)CC3)nc(OCC(F)(F)F)n2)cc1 [Compound 1594]	0.01 to 10 nM
O=C(NCC[C@H](NC(=O)c1ccc(Nc2nc(NC3(c4ccc(Cl)cc4)CC3)nc(OCC(F)(F)F)n2)cc1)C(=O)O)C(=O)NCC1(CN2CCCN2)CC1 [Compound 1443]	0.01 to 10 nM
COC(=O)[C@H](CNC(=O)C(=O)NCC1CCCOC1)NC(=O)c1ccc(Nc2nc(NC3(c4ccc(Cl)cc4)CC3)nc(OCC(F)(F)F)n2)cc1 (stereo partly shown) [Compound 1458]	0.01 to 10 nM
COc1cc(OC)nc(-c2ccc(NC(=O)C(=O)NCC(C)(C)CNC(=O)c3ccc(Nc4nc(NC5(c6ccc(Cl)cc6)CC5)nc(OCC(F)(F)F)n4)cc3)cc2)n1 [Compound 1596]	0.01 to 10 nM
CC1CCCCC1NC(=O)C(=O)NC[C@H](NC(=O)c1ccc(Nc2nc(NC3(c4ccc(Cl)cc4)CC3)nc(OCC(F)(F)F)n2)cc1)C(=O)O (stereo partly shown) [Compound 1089]	0.01 to 10 nM
COC(=O)[C@H](CCNC(=O)C(=O)Nn1cnnc1)NC(=O)c1ccc(Nc2nc(NC3(c4ccc(Cl)cc4)CC3)nc(OCC(F)(F)F)n2)cc1 [Compound 1219]	10 to 1000 nM
O=C(NC[C@H](NC(=O)c1ccc(Nc2nc(NC3(c4ccc(Cl)cc4)CC3)nc(OCC(F)(F)F)n2)cc1)C(=O)O)C(=O)NC1CCC(O)CC1 (stereo partly shown) [Compound 1078]	10 to 1000 nM
O=C(NCC[C@H](NC(=O)c1ccc(Nc2nc(NC3(c4ccc(Cl)cc4)CC3)nc(OCC(F)(F)F)n2)cc1)C(=O)O)C(=O)NCC1CCCc2ccccc21 (stereo partly shown) [Compound 1343]	0.01 to 10 nM
CCOC(=O)[C@H](CCNC(=O)C(=O)N(C)C)NC(=O)c1ccc(Nc2nc(NC3(c4ccc(Cl)cc4)CC3)nc(OCC(F)(F)F)n2)cc1 [Compound 1026, (S)-ethyl 2-(4-(4-(1-(4-chlorophenyl)cyclopropylamino)-6-(2,2,2-trifluoroethoxy)-1,3,5-triazin-2-ylamino)benzamido)-4-(2-(dimethylamino)-2-oxoacetamido)butanoate]	0.01 to 10 nM

same assay, conditions: Hepatitis C virus, Huh-7, 48 h, read-out: Activity (EC50 class), HCV pseudoparticles, Huh7 cells, luciferase 2 days after infection; average of duplicates

Compound	EC50
COC(=O)[C@H](CCNC(=O)C(=O)Nc1cccc(-c2nnnn2C)c1)NC(=O)c1ccc(Nc2nc(NC3(c4ccc(Cl)cc4)CC3)nc(OCC(F)(F)F)n2)cc1 [Compound 3607]	0.01 to 10 nM
Cn1nnnc1-c1cccc(NC(=O)C(=O)NC[C@H](NC(=O)c2ccc(Nc3nc(NC4(c5ccc(Cl)cc5)CC4)nc(OCC(F)(F)F)n3)cc2)C(=O)Cl)c1 [Compound 3786]	0.01 to 10 nM
COC(=O)[C@H](CNC(=O)C(=O)Nc1cccc(-c2ccnc(C)n2)c1)NC(=O)c1ccc(Nc2nc(NC3(c4ccc(Cl)cc4)CC3)nc(OCC(F)(F)F)n2)cc1 [Compound 3700]	0.01 to 10 nM
COC(=O)[C@H](CNC(=O)C(=O)Nc1ccc(NC(C)=O)nc1)NC(=O)c1ccc(Nc2nc(NC3(c4ccc(Cl)cc4)CC3)nc(OCC(F)(F)F)n2)cc1 [Compound 3706]	0.01 to 10 nM
CC(C)(CNC(=O)C(=O)Nc1nc2ccc(C(C)(O)O)cc2s1)CNC(=O)c1ccc(Nc2nc(NC3(c4ccc(Cl)cc4)CC3)nc(OCC(F)(F)F)n2)cc1 [Compound 3822]	0.01 to 10 nM
CCN(CC)CCOc1cccc(NC(=O)C(=O)NC[C@H](NC(=O)c2ccc(Nc3nc(NC4(c5ccc(Cl)cc5)CC4)nc(OCC(F)(F)F)n3)cc2)C(=O)Cl)c1 [Compound 3788]	0.01 to 10 nM
COC(=O)[C@H](CNC(=O)C(=O)Nc1ccc(Oc2cccnc2)nc1)NC(=O)c1ccc(Nc2nc(NC3(c4ccc(Cl)cc4)CC3)nc(OCC(F)(F)F)n2)cc1 [Compound 3699]	0.01 to 10 nM
O=C(NC[C@H](NC(=O)c1ccc(Nc2nc(NC3(c4ccc(Cl)cc4)CC3)nc(OCC(F)(F)F)n2)cc1)C(=O)O)C(=O)Nc1cccc(OC(F)(F)F)c1 [Compound 3749]	0.01 to 10 nM

same assay, conditions: Hepatitis C virus, Huh-7, read-out: Activity (EC50 class), HCV pseudoparticles (genotype 1a, H77C) in Huh7 cells; EC50 expressed as class A/B

Compound	EC50
O=C(NC[C@H](NC(=O)c1ccc(Nc2nc(NC3(c4ccc(Cl)cc4)CC3)nc(OCC(F)(F)F)n2)cc1)C(=O)O)C(=O)Nc1ccc(-c2c[nH]c(N3CCOCC3)n2)cc1 [Compound 3284]	0.01 to 10 nM
CC(C)(CNC(=O)C(=O)Nc1ncc(F)s1)CNC(=O)c1ccc(Nc2nc(NC3(c4ccc(Cl)cc4)CC3)nc(OCC(F)(F)F)n2)cc1 [Compound 3239]	0.01 to 10 nM
Cc1ccc(NC(=O)C(=O)NCC(C)(C)CNC(=O)c2ccc(Nc3nc(NC4(c5ccc(Cl)cc5)CC4)nc(OCC(F)(F)F)n3)cc2)c(C#N)c1 [Compound 3454]	0.01 to 10 nM
O=C(N[C@H](CCNC(=O)c1ccc(Nc2nc(NC3(c4ccc(Cl)cc4)CC3)nc(OCC(F)(F)F)n2)cc1)C(=O)O)C(=O)N1CCCCC1 [Compound 3504]	0.01 to 10 nM
O=C(NCCC(NC(=O)c1ccc(Nc2nc(NC3(c4ccc(Cl)cc4)CC3)nc(OCC(F)(F)F)n2)cc1)C(=O)O)C(=O)Nc1ccc(OCCc2ncccn2)cc1 (stereo not shown) [Compound 3536]	0.01 to 10 nM
O=C(NCCC(NC(=O)c1ccc(Nc2nc(NC3(c4ccc(Cl)cc4)CC3)nc(OCC(F)(F)F)n2)cc1)C(=O)O)C(=O)Nc1ccc(Cn2cncn2)cc1 (stereo not shown) [Compound 3520]	0.01 to 10 nM
CN(CCCNC(=O)c1ccc(Nc2nc(NC3(c4ccc(Cl)cc4)CC3)nc(OCC(F)(F)F)n2)cc1)C(=O)C(=O)Nc1cccc(F)c1 [Compound 3443]	0.01 to 10 nM
CC(C)(CNC(=O)C(=O)Nc1ccccc1-c1nnco1)CNC(=O)c1ccc(Nc2nc(NC3(c4ccc(Cl)cc4)CC3)nc(OCC(F)(F)F)n2)cc1 [Compound 3246]	0.01 to 10 nM
O=C(NCCCCNC(=O)c1ccc(Nc2nc(NC3(c4ccc(Cl)cc4)CC3)nc(OCC(F)(F)F)n2)cc1)C(=O)Nc1ccc(F)cc1 [Compound 3395]	0.01 to 10 nM
COC(=O)[C@H](CCNC(=O)C(=O)Nc1ccc(Cc2ccncc2)cc1)NC(=O)c1ccc(Nc2nc(NC3(c4ccc(Cl)cc4)CC3)nc(OCC(F)(F)F)n2)cc1 [Compound 3123]	0.01 to 10 nM
CC(C)(CNC(=O)c1ccc(Nc2nc(NC3(c4ccc(Cl)cc4)CC3)nc(OCC(F)(F)F)n2)cc1)NC(=O)C(=O)NC1CCCCC1 [Compound 3436]	0.01 to 10 nM
COc1ccc(NC(=O)C(=O)NCC(C)(C)CNC(=O)c2ccc(Nc3nc(NC4(c5ccc(Cl)cc5)CC4)nc(OCC(F)(F)F)n3)cc2F)c(OC)c1 [Compound 3560]	0.01 to 10 nM
COC(=O)[C@H](CCNC(=O)C(=O)Nc1ccc(Oc2cccnc2)cc1)NC(=O)c1ccc(Nc2nc(NC3(c4ccc(Cl)cc4)CC3)nc(OCC(F)(F)F)n2)cc1 [Compound 3324]	0.01 to 10 nM
COC(=O)[C@H](CNC(=O)C(=O)Nc1ccc(CNC(N)=O)cc1)NC(=O)c1ccc(Nc2nc(NC3(c4ccc(Cl)cc4)CC3)nc(OCC(F)(F)F)n2)cc1 [Compound 3197]	0.01 to 10 nM
CCOC(=O)/C=C/c1cccc(NC(=O)C(=O)NCC(C)(C)CNC(=O)c2ccc(Nc3nc(NC4(c5ccc(Cl)cc5)CC4)nc(OCC(F)(F)F)n3)cc2)c1 [Compound 3407]	0.01 to 10 nM
COC(=O)/C(CCNC(=O)C(=O)Nc1ccc(-n2nnnc2C)cc1)=N\C(=O)c1ccc(Nc2nc(NC3(c4ccc(Cl)cc4)CC3)nc(OCC(F)(F)F)n2)cc1 [Compound 3135]	0.01 to 10 nM
CCc1cccc(NC(=O)C(=O)NCC[C@@H](NC(=O)c2ccc(Nc3nc(NC4(c5ccc(Cl)cc5)CC4)nc(OCC(F)(F)F)n3)cc2)C(=O)OC)c1 [Compound 3573]	0.01 to 10 nM
Cc1ccccc1-c1ccc(NC(=O)C(=O)NCCC(NC(=O)c2ccc(Nc3nc(NC4(c5ccc(Cl)cc5)CC4)nc(OCC(F)(F)F)n3)cc2)C(=O)O)cc1 (stereo not shown) [Compound 3525]	10 to 1000 nM
COc1ccc(NC(=O)C(=O)NCC(C)(C)CNC(=O)c2ccc(Nc3nc(NC4(c5ccc(Cl)cc5)CC4)nc(OCC(F)(F)F)n3)cc2)c(C(F)(F)F)c1 [Compound 3456]	0.01 to 10 nM
